biological target: T1, human A3AR (Homo sapiens, UniProt P0DMS8); format: binding; settings: not given
T1 sequence (P0DMS8 1-318): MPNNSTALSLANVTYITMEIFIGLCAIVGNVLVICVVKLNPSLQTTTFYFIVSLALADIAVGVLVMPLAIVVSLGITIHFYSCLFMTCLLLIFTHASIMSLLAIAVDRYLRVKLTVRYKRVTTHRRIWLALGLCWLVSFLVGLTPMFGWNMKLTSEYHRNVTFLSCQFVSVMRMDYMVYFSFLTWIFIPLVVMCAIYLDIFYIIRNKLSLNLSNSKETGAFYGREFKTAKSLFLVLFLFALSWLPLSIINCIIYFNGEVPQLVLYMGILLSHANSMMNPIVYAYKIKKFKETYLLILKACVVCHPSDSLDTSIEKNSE

Going from `CCSc1nc(N)c2ncn([C@H]3[C@H](O)[C@H](O)[C@]4(CO)C[C@H]34)c2n1` [Compound 8b, (1R,2R,3S,4R,5S)-4-(6-Amino-2-(ethylthio)-9H-purin-9-yl)-1-(hydroxymethyl)bicyclo[3.1.0]hexane-2,3-diol] to `CCCCCCSc1nc(N)c2ncn([C@H]3[C@H](O)[C@H](O)[C@]4(CO)C[C@H]34)c2n1` [Compound 8c, (1R,2R,3S,4R,5S)-4-(6-Amino-2-(hexylthio)-9H-purin-9-yl)-1-(hydroxymethyl)bicyclo[3.1.0]hexane-2,3-diol], the Ki falls from 970 ± 60 nM to 548 ± 44 nM (1.8-fold).

`Nc1nc(SC2CCCCC2)nc2c1ncn2[C@H]1[C@H](O)[C@H](O)[C@]2(CO)C[C@H]12` [Compound 8d, (1R,2R,3S,4R,5S)-4-(6-Amino-2-(cyclohexylthio)-9H-purin-9-yl)-1-(hydroxymethyl)bicyclo[3.1.0]hexane-2,3-diol] and `COc1nc(N)c2ncn([C@H]3[C@H](O)[C@H](O)[C@]4(CO)C[C@H]34)c2n1` [Compound 8g, (1R,2R,3S,4R,5S)-4-(6-Amino-2-methoxy-9H-purin-9-yl)-1-(hydroxymethyl)bicyclo[3.1.0]hexane-2,3-diol] are within error of each other in Ki: 1080 ± 90 nM for the first, 1140 ± 84 nM for the second.

First: Nc1nc(SCc2ccccc2)nc2c1ncn2[C@H]1[C@H](O)[C@H](O)[C@]2(CO)C[C@H]12 [Compound 8e, (1R,2R,3S,4R,5S)-4-(6-Amino-2-(benzylthio)-9H-purin-9-yl)-1-(hydroxymethyl)bicyclo[3.1.0]hexane-2,3-diol]
Second: Nc1nc(SCCc2ccccc2)nc2c1ncn2[C@H]1[C@H](O)[C@H](O)[C@]2(CO)C[C@H]12 [Compound 8f, (1R,2R,3S,4R,5S)-4-(6-Amino-2-(phenethylthio)-9H-purin-9-yl)-1-(hydroxymethyl)bicyclo[3.1.0]hexane-2,3-diol]
The Ki of the first is 5.8-fold lower: 49.8 ± 5.5 nM for the first, 291 ± 89 nM for the second. The first binds more tightly here.

same assay, conditions: ratio of Ki values vs 8a at hA3AR

In the case of `Nc1nc(SCc2ccccc2)nc2c1ncn2[C@H]1[C@H](O)[C@H](O)[C@]2(CO)C[C@H]12` [Compound 8e, (1R,2R,3S,4R,5S)-4-(6-Amino-2-(benzylthio)-9H-purin-9-yl)-1-(hydroxymethyl)bicyclo[3.1.0]hexane-2,3-diol], the “fold higher A3AR affinity than 8a” value is reported as 30 fold.

Source: article PMC9037833 (RSC Advances, 2021)
